# Measured values taken from patent US4107307A, “Imidazo [1,5-d]-as-triazine-4(3H)-ones and thiones” (American Cyanamid Company, priority 1977, dated 1978).
# What was measured:
# [1] = system: spontaneous hypertensive rats; experiment: Anti-hypertensive activity, mean arterial blood pressure of conscious spontaneous hypertensive rats; format: in vivo, rat (adult male spontaneous hypertensive); settings: second identical dose at 24th hour, vehicle controls 166
# Method: These compounds have been tested pharmacologically and found to have such properties with a desirable wide spread between doses producing lowered blood pressure and toxic symptoms. In determining this effect of these compounds on hypertension, adult male, 16-20 weeks old, spontaneous hypertensive rats from Taconic Farms, Germantown, N.Y., weighing about 300 grams are used. The rats are dosed by gavage with the test compounds at the indicated dose. All doses of drug were suspended in 2% starch (2 ml./kg.). A second identical dose of the test compound is given at the 24th hour. The mean arterial blood pressure (MAP) of the conscious rats is measured directly by femoral artery puncture at the 28th hour.
# [2] = system: Mouse Skin Phosphodiesterase; experiment: Mouse skin phosphodiesterase (PDE) inhibition test (A); format: biochemical, hairless mice; set-up: key: Active: A compound is considered active if it inhibits more than theophylline, that is, to 50% of control at 1 mM concentration of compound, or to 80% of control of 0.05 mM concentration of compound; settings: mouse epidermal PDE, test compound 10 ug./ml., 30° C. 15 min
# [3] = system: Monkey Lung Cyclic AMP Phosphodiesterase; experiment: Monkey lung cyclic AMP phosphodiesterase inhibition test (B); format: biochemical, African green monkeys; settings: method: monkey lung PDE, 10^-6 M cyclic AMP, compound usually 1 mM or 0.1 mM, 25° C. 20 min
# Method: The inhibition of phosphodiesterase is determined by the mouse skin and monkey lung phosphodiesterase (PDE) inhibition tests as follows:
# (B) MONKEY LUNG INHIBITION
# Preparation of Monkey Lung Cyclic AMP Phosphodiesterase
# Lung parenchyma of African green monkeys is homogenized in a Waring blender and centrifuged at 40,000 × gravity for 20 minutes. The supernatant is brought to 70% saturation of ammonium sulfate, centrifuged and the pellet redissolved and dialysed, before aliquoting and storage at -20° C.
# Assay of Monkey Lung Phosphodiesterase
# Phosphodiesterase is assayed by the method of Thompson and Appleman, ibid. An assay tube contains a 0.4 ml. solution of the following: 45 mM tris-HCl buffer, pH 7.4, […], 0.1 mM dithioerythritol, 10^-6 M cyclic AMP, 0.1 uCi [^3 H]-cyclic AMP, and test compound at the desired concentration (usually 1 mM or 0.1 mM). Compounds not readily soluble in water are dissolved at 40 times the desired concentration in methanol, and diluted 20 times with water. If the compound is not dissolved at this time, it is suspended by sonication before being diluted 1:2 into the assay tube. In this case the activity of the enzyme in the presence of the compound is compared to a solvent control (2.5% methanol), although the solvent alone has negligible effect. The reaction is initiated by addition of enzyme and proceeds at 25° C. for 20 minutes. It is terminated by incubation at 100° C. for 2 minutes. The tubes are cooled to 25° C., 0.8 ug of 5'-nucleotidase (Crotolu adamantus toxin) is added to each and the tubes incubated at 25° C. for 30 minutes. A 1 milliliter suspension of Bio-Rad Labs. AGIX8 (about 0.5 ml. of settled resin) is added, the tubes centrifuged at 900 × gravity for 10 minutes and an aliquot of supernatant removed for scintillation counting. The inhibition by the test compound is calculated as: [formula] where `compound` is the cpm in the presence of compound, `control` is the cpm in the absence of compound, and `blank` is the cpm in the absence of enzyme. […] For this reason, control tubes which contained [^3 H]-AMP instead of [^3 H]-cyclic AMP are run in parallel. A correction of the apparent phosphodiesterase activity is made for the rare compound which inhibited the hydrolysis of AMP.
# [4] = Dispersion of aerosol suspension on warming after storage; format: physicochemical; settings: aerosol in dichlorodifluoromethane with sorbitan trioleate
# Method: The active ingredient and sorbitan trioleate are placed in a beaker and the dichlorodifluoromethane is added at -40° C. whereupon a suspension is formed. The mixture is sonified, that is, treated with a Sonifier, manufactured by the Branson Sonic Power Co. of Danbury, Conn., as model LS-75 at a current input of 9 amperes for 2 minutes. Additional cold dichlorodifluoromethane is added as necessary to keep the volume at 100 ml. The mixture is uniformly dispersed, and has increased stability resulting from the sonification. Each of six 19 ml. stainless steel containers are filled with 15 ml. of the cold mixture, then valves are inserted and sealed in place.
Compound,Mouse Skin Phosphodiesterase (A) [2],Monkey Lung Phosphodiesterase (B) [3],MAP 28th hour ([1]; 100 mg/kg by gavage) [mm Hg],also measured
"Cc1nc(C)n2c(=S)[nH]ncc12 [6,8-Dimethyl-imidazo[1,5-d]-as-triazine-4-(3H)-thione]",Active,,93,
"CC(C)c1nc(Cl)c2cn[nH]c(=S)n12 [8-chloro-6-isopropyl-imidazo[1,5-d]-as-triazine-4(3H)-thione]",,,,dispersion after storage [4]: remains dispersed
"Cc1ncn2c(=S)[nH]ncc12 [8-Methyl-imidazo[1,5-d]-as-triazine-4-(3H)-thione]",Active,,,MAP 28th hour ([1]; 25 mg/kg by gavage): 130 mm Hg
"Cc1ncc2cn[nH]c(=O)n12 [6-Methyl-imidazo[1,5-d]-as-triazin-4(3H)-one]",,,120,
"CCCc1ncc2cn[nH]c(=O)n12 [6-n-Propyl-imidazo[1,5-d]-as-triazin-4(3H)-one]",Active,,,
"COCc1ncc2cn[nH]c(=S)n12 [6-Methoxymethyl-imidazo[1,5-d]-as-triazine-4-(3H)-thione]",,,100,
"S=c1[nH]ncc2cncn12 [Imidazo[1,5-d]-as-triazin-4(3H)-thione, Imidazo[1,5-d]-as-triazine-4(3H)-thione]",,,123,
"CCCc1nc(C)c2cn[nH]c(=O)n12 [8-Methyl-6-n-propyl-imidazo[1,5-d]-as-triazin-4(3H)-one]",,,,MAP 28th hour ([1]; 50 mg/kg by gavage): 127 mm Hg
"CCCc1ncc2cn[nH]c(=S)n12 [6-n-Propyl-imidazo[1,5-d]-as-triazine-4(3H)-thione]",Active,Active,136,
"CC(C)(C)c1ncc2cn[nH]c(=O)n12 [6-tert-Butyl-imidazo[1,5-d]-as-triazin-4(3H)-one]",Active,,135,
"CCCc1nc(C)c2cn[nH]c(=S)n12 [8-Methyl-6-n-propyl-imidazolo[1,5-d]-as-triazine-4(3H)-thione]",Active,Active,,

# Second part, led by results:
Mouse Skin Phosphodiesterase (A) [2],Monkey Lung Phosphodiesterase (B) [3],Compound,MAP 28th hour ([1]; 100 mg/kg by gavage) [mm Hg],also measured
Active,Active,"Cc1nc(C)n2c(=O)[nH]ncc12 [6,8-Dimethyl-imidazo[1,5-d]-as-triazin-4(3H)-one]",,MAP 28th hour ([1]; 50 mg/kg by gavage): 70 mm Hg
Active,,"CCCOc1ccccc1-c1ncc2cn[nH]c(=O)n12 [6-o-Propoxyphenyl-imidazo[1,5-d]-as-triazine-4(3H)-one]",,
Active,,"Cc1ncn2c(=O)[nH]ncc12 [8-Methyl-imidazo[1,5-d]-as-triazin-4(3H)-one]",91,
Active,,"Cc1nc(Cc2ccccc2)n2c(=O)[nH]ncc12 [6-Benzyl-8-methyl-imidazo[1,5-d]-as-triazin-4(3H)-one]",,
Active,,"O=c1[nH]ncc2cnc(-c3ccccc3)n12 [6-Phenyl-imidazo[1,5-d]-as-triazin-4(3H)-one]",117,
Active,Active,"O=c1[nH]ncc2c(Br)nc(-c3ccccc3)n12 [8-Bromo-6-phenyl-imidazo[1,5-d]-as-triazin-4(3H)-one]",,
Active,Active,"Cc1nc(C(C)(C)C)n2c(=O)[nH]ncc12 [6-tert-Butyl-8-methyl-imidazo[1,5-d]-as-triazin-4(3H)-one]",133,
Active,Active,"O=c1[nH]ncc2c(Cl)nc(-c3ccccc3)n12 [8-Chloro-6-phenyl-imidazo[1,5-d]-as-triazin-4(3H)-one]",,
Active,Active,"Cc1nc(-c2ccccc2)n2c(=O)[nH]ncc12 [8-Methyl-6-phenyl-imidazo[1,5-d]-as-triazin-4(3H)-one]",133,
Active,,"O=c1[nH]ncc2cnc(Cc3ccccc3)n12 [6-Benzyl-imidazo[1,5-d]-as-triazin-4(3H)-one]",,
Active,Active,"Cc1nc(Cc2ccccc2)n2c(=S)[nH]ncc12 [6-Benzyl-8-methyl-imidazo[1,5-d]-as-triazine-4(3H)-thione]",,
Active,,"Cc1nc(-c2ccccc2)n2c(=S)[nH]ncc12 [8-Methyl-6-phenyl-imidazo[1,5-d]-as-triazine-4-(3H)-thione]",128,
